According to patent publication US8143421B2, “Broadspectrum substituted benzimidazole sulfonamide HIV protease inhibitors” (priority 2002, dated 2012):
Read-outs that look alike come from different tables or passages of the source. Blank lines part the entries; values can stand above or below the molecule they belong to.

Assays:
mutant H = test: Antiviral spectrum, fold resistance towards mutant H; type: cell-based; details: FR=IC50(mutant strain)/IC50(HIV-1 strain LAI)
Method: (§1) Because of the increasing emergence of drug resistant HIV strains, the present compounds were tested for their potency against clinically isolated HIV strains harboring several mutations. These mutations are associated with resistance to protease inhibitors and result in viruses that show various degrees of phenotypic cross-resistance to the currently commercially available drugs such as for instance saquinavir, ritonavir, nelfinavir, indinavir and amprenavir. The viral strains R13025, R13027, R13028, R13029, R13034, R13080, T13127 and R13363 contained mutations as indicated below in Table 3.

mutant F = test: Antiviral spectrum, fold resistance towards mutant F; type: cell-based; details: FR=IC50(mutant strain)/IC50(HIV-1 strain LAI)
Method: as §1

mutant B = test: Antiviral spectrum, fold resistance towards mutant B; type: cell-based; details: FR=IC50(mutant strain)/IC50(HIV-1 strain LAI)
Method: as §1

in vitro = details: human
Method: (§2) HIV- or mock-infected MT4 cells were incubated for five days in the presence of various concentrations of the inhibitor. […] Cell viability is measured by measuring the concentration of MTT, a yellow, water soluble tetrazolium dye that is converted to a purple, water insoluble formazan in the mitochondria of living cells only. Upon solubilization of the resulting formazan crystals with isopropanol, the absorbance of the solution is monitored at 540 nm. The values correlate directly to the number of living cells remaining in the culture at the completion of the five day incubation. The inhibitory activity of the compound was monitored on the virus-infected cells and was expressed as IC50 and IC90. These values represent the amount of the compound required to protect 50% and 90%, respectively, of the cells from the cytopathogenic effect of the virus. […] The selectivity index (SI) (ratio CC50/IC50) is an indication of the selectivity of the anti-HIV activity of the inhibitor. Wherever results are reported as e.g. pIC50 or pCC50 values, the result is expressed as the negative logarithm of the result expressed as IC50 or CC50 respectively.
(§3) As a measure of the broad spectrum activity of the present compounds, the fold resistance (FR), defined as FR=IC50(mutant strain)/IC50(HIV-1 strain LAI), was determined.

HIV-1 strain LAI = test: Cellular anti-HIV assay, MT4 cells, MTT readout, wild type HIV-1 strain LAI; type: cell-based
Method: The compounds of the present invention were examined for anti-viral activity in a cellular assay. […] The cellular assay was performed according to the following procedure.

mutant D = test: Antiviral spectrum, fold resistance towards mutant D; type: cell-based; details: FR=IC50(mutant strain)/IC50(HIV-1 strain LAI)
Method: as §1

mutant A = type: cell-based; details: FR=IC50(mutant strain)/IC50(HIV-1 strain LAI)
Method: as §2
(§4) Because of the increasing emergence of drug resistant HIV strains, the present compounds were tested for their potency against clinically isolated HIV strains harboring several mutations. […] The viral strains R13025, R13027, R13028, R13029, R13034, R13080, T13127 and R13363 contained mutations as indicated below in Table 3.
as §3

mutant E = type: cell-based; details: FR=IC50(mutant strain)/IC50(HIV-1 strain LAI)
Method: as §2, §4, §3

mutant C = test: Antiviral spectrum, fold resistance towards mutant C; type: cell-based; details: FR=IC50(mutant strain)/IC50(HIV-1 strain LAI)
Method: as §1

mock-infected MT4 cells = test: Toxicity on mock-infected MT4 cells (CC50)
Method: as §2, §3

mutant G = test: Antiviral spectrum, fold resistance towards mutant G; type: cell-based; details: FR=IC50(mutant strain)/IC50(HIV-1 strain LAI)
Method: as §1

[1] = Oral availability in the rat, serum concentration; type: in vivo
Method: The compounds are formulated as a 20 mg/ml solution or suspension in DMSO, PEG400 or cyclodextin 40% in water. For most experiments in the rat (male and female rats), three dosing groups are formed: 1/single intraperitoneal (IP) dose at 20 mg/kg using DMSO formulation; 2/single oral dose at 20 mg/kg using […] oral dose at 20 mg/kg using PEG400 formulation. Blood is sampled at regular time intervals after dosing and drug concentrations in the serum are determined using a LC-MS bioanalytical method. Serum concentrations are expressed in […]. Serum concentration at 30 minutes (30′) and at 3 hours (180′) can be determined as these values reflect the extent of absorption (30′) and the speed of elimination (180′). The rat serum concentration at 30 min and 180 min following IP administration of 20 mg/kg of compound 18 are 2012 ng/ml and 190 ng/ml respectively. The rat serum concentration at 30 min and 180 min following oral administration of 20 mg/kg as a DMSO formulation of compound 18 are 148 ng/ml and 44 ng/ml respectively; whereas in PEG400 said concentrations are respectively 475 ng/ml and 63 ng/ml.

[2] = Human immunodeficiency virus 1, 120 h, Table 1, MT4 cells, five days, HIV-1 strain LAI, read-out: pIC50 (LAI) (converted)
[3] = Human immunodeficiency virus 1, MT4, Table 4, wild type HIV-LAI strain, read-out: WT (pIC50 against wild type HIV-LAI strain) (converted)
[4] = pCC50 value as determined with mock transfected cells
[5] = Table 1, MT4 cells, five days, HIV-1 strain LAI
[6] = Table 4, wild type HIV-LAI strain

Molecule: Cc1nc2ccc(S(=O)(=O)N(CC(C)C)C[C@@H](O)[C@H](Cc3ccccc3)NC(=O)O[C@H]3CO[C@H]4OCC[C@H]43)cc2n1Cc1ccccc1 [Compound 2, [(1S,2R)-2-hydroxy-3-[[[[2-methyl-1-(phenylmethyl)]benzimidazol-6-yl]sulfonyl]-(2-methylpropyl)amino]-1-(phenylmethyl)propyl]carbamic acid, [(3R,3aS,6aR)-hexahydrofuro[2,3-b]furan-3-yl]ester]
FR towards mutant H (mutant H): 89
FR towards mutant F (mutant F): 162
FR towards mutant B (mutant B): 6.3
CC50 at 5 days (in vitro): 63.1 µM
IC50 (HIV-1 strain LAI; [2]): 1 nM
IC50 (HIV-1 strain LAI; [3]): 1 nM
FR towards mutant D (mutant D): 6.3
FR value towards mutant A (mutant A): 32
FR towards mutant E (mutant E): 2.9
FR towards mutant C (mutant C): 1.9

Molecule: CC(C)CN(CC(O)C(Cc1ccccc1)NC(=O)OC1COC2OCCC12)S(=O)(=O)c1ccc2ncn(CCc3ccccc3)c2c1 (centres unmarked) [Compound 5]
FR towards mutant H (mutant H): 49
FR towards mutant F (mutant F): 78
FR towards mutant B (mutant B): 1.9
Tox (pCC50) (mock-infected MT4 cells; [4]): 4.1
pIC50 (LAI) (HIV-1 strain LAI; [5]): 8.7
WT (pIC50 against wild type HIV-LAI strain) (HIV-1 strain LAI; [6]): 8.7
FR towards mutant G (mutant G): 110
FR towards mutant D (mutant D): 1.9
FR towards mutant E (mutant E): 3.2
FR towards mutant C (mutant C): 0.9

Molecule: [(1S,2R)-2-hydroxy-3-[[(2-methylbenzimidazol-5-yl)sulfonyl](2-methylpropyl)amino]-1-(phenylmethyl)propyl]-carbamic acid, [(3R,3aS,6aR)-hexahydrofuro[2,3-b]furan-3-yl]ester [Compound 24]
FR towards mutant F (mutant F): 4.7
FR towards mutant B (mutant B): 0.85
Tox (pCC50) (mock-infected MT4 cells; [4]): <4
pIC50 (LAI) (HIV-1 strain LAI; [5]): 7.3
WT (pIC50 against wild type HIV-LAI strain) (HIV-1 strain LAI; [6]): 7.3
FR towards mutant G (mutant G): 35
FR towards mutant D (mutant D): 0.89
FR value towards mutant A (mutant A): 2.6
FR towards mutant E (mutant E): 0.83
FR towards mutant C (mutant C): 1.1

Molecule: COC(=O)Nc1nc2ccc(S(=O)(=O)N(CC(C)C)C[C@@H](O)[C@H](Cc3ccccc3)NC(=O)COc3c(C)cccc3C)cc2[nH]1 [Compound 8, [(1S,2R)-2-hydroxy-3-[[[2-[(methoxycarbonyl)amino]-1H-benzimidazol-5-yl]sulfonyl](2-methylpropyl)amino]-1-(phenylmethyl)propyl]-(2,6-dimethylphenoxy)acetamide]
FR towards mutant F (mutant F): 16.2
FR towards mutant B (mutant B): 2.0
CC50 at 5 days (in vitro): > 100 µM
IC50 (HIV-1 strain LAI; [2]): 3.16 nM
IC50 (HIV-1 strain LAI; [3]): 3.16 nM
FR towards mutant G (mutant G): 89
FR towards mutant D (mutant D): 1.9
FR value towards mutant A (mutant A): 2.1
FR towards mutant E (mutant E): 2.3
FR towards mutant C (mutant C): 1.4

Molecule: CC(=O)Nc1nc2ccc(S(=O)(=O)N(CC(C)C)C[C@@H](O)[C@H](Cc3ccccc3)NC(=O)COc3c(C)cccc3C)cc2[nH]1 [Compound 9, [(1S,2R)-3-[[[2-(acetylamino)benzimidazol-5-yl]sulfonyl](2-methyl-propyl)amino]-2-hydroxy-1-(phenylmethyl)propyl]-(2,6-dimethylphenoxy)acetamide]
FR towards mutant F (mutant F): 14
FR towards mutant B (mutant B): 1.3
CC50 at 5 days (in vitro): > 100 µM
IC50 (HIV-1 strain LAI; [2]): 3.98 nM
IC50 (HIV-1 strain LAI; [3]): 3.98 nM
FR towards mutant G (mutant G): 107
FR towards mutant D (mutant D): 2.4
FR value towards mutant A (mutant A): 4.3
FR towards mutant E (mutant E): 2.8
FR towards mutant C (mutant C): 4.4

Molecule: COC(=O)Nc1nc2ccc(S(=O)(=O)N(CC(C)C)C[C@@H](O)[C@H](Cc3ccccc3)NC(=O)c3ccc(N)cc3C)cc2[nH]1 [Compound 22]
FR towards mutant F (mutant F): 0.69
FR towards mutant B (mutant B): 0.78
Tox (pCC50) (mock-infected MT4 cells; [4]): 4.1
pIC50 (LAI) (HIV-1 strain LAI; [5]): 7.4
WT (pIC50 against wild type HIV-LAI strain) (HIV-1 strain LAI; [6]): 7.4
FR towards mutant G (mutant G): 4.3
FR towards mutant D (mutant D): 0.71
FR value towards mutant A (mutant A): 0.74
FR towards mutant E (mutant E): 0.72
FR towards mutant C (mutant C): 1.1

Molecule: CC(C)CN(CC(O)C(Cc1ccccc1)NC(=O)OC1COC2OCCC12)S(=O)(=O)c1ccc2nc(CO)[nH]c2c1 (centres unmarked) [Compound 56]
FR towards mutant F (mutant F): 0.34
FR towards mutant B (mutant B): 0.66
Tox (pCC50) (mock-infected MT4 cells): <4
pIC50 (LAI) (HIV-1 strain LAI; [5]): 5.7
WT (pIC50 against wild type HIV-LAI strain) (HIV-1 strain LAI; [6]): 5.7
FR towards mutant G (mutant G): 0.83
FR towards mutant D (mutant D): 0.18
FR value towards mutant A (mutant A): 0.28
FR towards mutant E (mutant E): 0.18
FR towards mutant C (mutant C): 0.43

rat serum concentration at 30 min ([1]; IP administration of 20 mg/kg, 30 min): 2012 ng/mL
rat serum concentration at 180 min ([1]; IP administration of 20 mg/kg, 180 min): 190 ng/mL
rat serum concentration at 30 min ([1]; oral administration of 20 mg/kg as a DMSO formulation, 30 min): 148 ng/mL
rat serum concentration at 180 min ([1]; oral administration of 20 mg/kg as a DMSO formulation, 180 min): 44 ng/mL
rat serum concentration at 30 min ([1]; oral administration of 20 mg/kg in PEG400, 30 min): 475 ng/mL
rat serum concentration at 180 min ([1]; oral administration of 20 mg/kg in PEG400, 180 min): 63 ng/mL
Molecule: CC(C)CN(CC(O)C(Cc1ccccc1)NC(=O)OC1COC2OCCC12)S(=O)(=O)c1ccc2ncn(C)c2c1 (centres unmarked) [Compound 18]

Molecule: CC(C)CN(C[C@@H](O)[C@H](Cc1ccccc1)NC(=O)OC1COC2OCCC12)S(=O)(=O)c1ccc2nc(NC(=O)NCCN(C)C)[nH]c2c1 (some centres unmarked) [Compound 58]
FR towards mutant F (mutant F): 1.1
FR towards mutant B (mutant B): 1.0
Tox (pCC50) (mock-infected MT4 cells): <4
pIC50 (LAI) (HIV-1 strain LAI; [5]): 5.6
WT (pIC50 against wild type HIV-LAI strain) (HIV-1 strain LAI; [6]): 5.6
FR towards mutant G (mutant G): 1.1
FR towards mutant D (mutant D): 0.32
FR value towards mutant A (mutant A): 1.0
FR towards mutant E (mutant E): 0.37
FR towards mutant C (mutant C): 1.0

Molecule: CC(=O)Nc1nc2ccc(S(=O)(=O)N(CC(C)C)C[C@@H](O)[C@H](Cc3ccccc3)NC(=O)OC3COC4OCCC34)cc2[nH]1 (some centres unmarked) [Compound 38]
FR towards mutant F (mutant F): 0.21
FR towards mutant B (mutant B): 0.32
Tox (pCC50) (mock-infected MT4 cells): <4
pIC50 (LAI) (HIV-1 strain LAI; [5]): 6.7
WT (pIC50 against wild type HIV-LAI strain) (HIV-1 strain LAI; [6]): 6.7
FR towards mutant G (mutant G): 0.60
FR towards mutant D (mutant D): 0.19
FR value towards mutant A (mutant A): 0.12
FR towards mutant E (mutant E): 0.17
FR towards mutant C (mutant C): 0.39

Molecule: CC(C)CN(C[C@@H](O)[C@H](Cc1ccccc1)NC(=O)OCc1cncs1)S(=O)(=O)c1ccc2nc(N)[nH]c2c1 [Compound 57]
FR towards mutant F (mutant F): 0.30
FR towards mutant B (mutant B): 0.30
Tox (pCC50) (mock-infected MT4 cells): <4
pIC50 (LAI) (HIV-1 strain LAI; [5]): 5.7
WT (pIC50 against wild type HIV-LAI strain) (HIV-1 strain LAI; [6]): 5.7
FR towards mutant G (mutant G): 2.0
FR towards mutant D (mutant D): 0.34
FR value towards mutant A (mutant A): 0.37
FR towards mutant E (mutant E): 0.32
FR towards mutant C (mutant C): 0.31

Molecule: COC(=O)Nc1nc2ccc(S(=O)(=O)N(CC(C)C)C[C@@H](O)[C@H](Cc3ccccc3)NC(=O)COc3c(C)cc(C#N)cc3C)cc2[nH]1 [Compound 12]
FR towards mutant F (mutant F): 49
FR towards mutant B (mutant B): 2.1
Tox (pCC50) (mock-infected MT4 cells; [4]): <4
pIC50 (LAI) (HIV-1 strain LAI; [5]): 7.8
WT (pIC50 against wild type HIV-LAI strain) (HIV-1 strain LAI; [6]): 7.8
FR towards mutant G (mutant G): 89
FR towards mutant D (mutant D): 7.9
FR value towards mutant A (mutant A): 5.5
FR towards mutant E (mutant E): 9.5
FR towards mutant C (mutant C): 9.5
